{"source": "paper PMC9898036", "about": "“VIP152 is a selective CDK9 inhibitor with pre-clinical in vitro and in vivo efficacy in chronic lymphocytic leukemia” (Leukemia, 2022)", "key": {"[1]": {"target": "IRAK1 (Homo sapiens, UniProt P51617)", "sequence (P51617 whole entry)": "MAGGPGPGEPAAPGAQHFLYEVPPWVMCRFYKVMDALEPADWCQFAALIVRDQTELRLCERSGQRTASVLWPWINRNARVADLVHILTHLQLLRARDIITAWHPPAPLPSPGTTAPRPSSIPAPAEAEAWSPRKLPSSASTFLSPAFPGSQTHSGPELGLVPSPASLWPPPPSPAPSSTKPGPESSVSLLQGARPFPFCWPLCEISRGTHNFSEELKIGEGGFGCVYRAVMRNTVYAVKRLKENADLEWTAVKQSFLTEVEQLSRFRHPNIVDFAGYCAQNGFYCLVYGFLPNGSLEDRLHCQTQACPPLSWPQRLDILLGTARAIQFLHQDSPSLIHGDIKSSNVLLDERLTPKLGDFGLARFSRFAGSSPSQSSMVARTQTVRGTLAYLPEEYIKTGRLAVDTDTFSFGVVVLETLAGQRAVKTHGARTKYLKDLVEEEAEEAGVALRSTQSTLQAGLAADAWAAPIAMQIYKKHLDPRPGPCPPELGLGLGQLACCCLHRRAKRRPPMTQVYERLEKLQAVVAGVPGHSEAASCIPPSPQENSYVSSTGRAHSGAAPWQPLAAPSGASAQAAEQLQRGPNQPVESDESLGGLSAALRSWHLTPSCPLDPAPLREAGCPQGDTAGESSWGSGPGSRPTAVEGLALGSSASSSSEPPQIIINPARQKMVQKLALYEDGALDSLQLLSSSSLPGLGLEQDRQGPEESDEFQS", "assay": "KINOMEscan: IRAK1", "type": "binding", "description": "The structure and synthesis of VIP152 were recently described by Lücking et al.. (Fig. 1A); however, the selectivity of the molecule in cellular systems has yet to be explored. […] We also performed this experiment at 1000 nM, where CDK9 was inhibited at 99%. […] We found a strong concordance between our data and those of Lücking when comparing the most inhibited kinases. Potential off-target effects of VIP152 were next tested in vitro at a concentration of 10 µM for off-target activity against a broad range of receptors, transporters, ion channels, and enzymes (n = 138) using the Eurofins Diversity Panel.\nKinomescan Kinase Profiling Assay\nKinomescan Assay was performed at DiscoverRX and described in Fabian, et al. 2005, Nat.\nBiotechnol. In brief, kinases were produced and subsequently tagged with DNA for qPCR detection.\nStreptavidin-coated magnetic beads were bound to biotinylated kinase ligands to serve as a solid support.\nVIP152 was dissolved in DMSO and tested across a 10 serial threefold dilution set and compared to a test compound and a DMSO control. Kinases which were inhibited by VIP152 would not be bound to the solid-support resulting in decreased substrate for the qPCR reaction. Kinome map was produced via TreeSpot Analysis from DiscoverRX. […]\nNanoBRETTM Target Engagement Assay Protocol […]\nComplete 20X NanoBRET Tracer Reagent was prepared with Tracer Dilution Buffer and dispensed at a ratio of 1:20 Reagent to cells in the tube. The cell"}, "[2]": {"target": "T1, CDK9 in complex with Cyclin K (Homo sapiens, UniProt P50750)", "T1 construct": "host or cells: HEK293", "assay": "NanoBRET target engagement assay (HEK293)", "type": "cell-based"}, "[3]": {"target": "Adrenergic β1 (Homo sapiens, UniProt P08588)", "assay": "Eurofins Diversity Panel", "type": "binding", "conditions": "hum, Conc. 10 μM"}, "[4]": {"system": "GABAA, Flunitrazepam, Central", "assay": "Eurofins Diversity Panel", "type": "binding", "conditions": "rat, Conc. 10 μM"}, "[5]": {"system": "GABAA, Muscimol, Central", "assay": "Eurofins Diversity Panel", "type": "binding", "conditions": "rat, Conc. 10 μM"}, "[6]": {"system": "Thyroid Hormone", "assay": "Eurofins Diversity Panel", "type": "binding", "conditions": "rat, Conc. 10 μM"}, "[7]": {"target": "PFPK5(P.falciparum) (Plasmodium falciparum, UniProt P61075)", "sequence (P61075 whole entry)": "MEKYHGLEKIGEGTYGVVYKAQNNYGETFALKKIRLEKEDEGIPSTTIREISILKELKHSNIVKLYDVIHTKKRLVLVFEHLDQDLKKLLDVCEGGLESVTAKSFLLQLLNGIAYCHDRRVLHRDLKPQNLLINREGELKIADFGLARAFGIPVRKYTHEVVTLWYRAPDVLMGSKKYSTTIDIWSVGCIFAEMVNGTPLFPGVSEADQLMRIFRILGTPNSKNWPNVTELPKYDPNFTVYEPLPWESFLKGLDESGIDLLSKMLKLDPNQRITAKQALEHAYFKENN", "assay": "DiscoverX KINOMEscan kinase profiling", "type": "binding", "conditions": "kinase PFPK5(P.falciparum) (Entrez MAL13P1.279); compound concentration 1000 nM; read-out: Percent Control"}, "[8]": {"target": "RIOK1 (Homo sapiens, UniProt Q9BRS2)", "assay": "KINOMEscan: RIOK1", "type": "binding", "conditions": "100 nM, read-out: Percent Control"}, "[9]": {"target": "ROCK1 (Homo sapiens, UniProt Q13464)", "assay": "KINOMEscan: ROCK1", "type": "binding", "conditions": "100 nM, read-out: Percent Control"}, "[10]": {"target": "TLK1 (Homo sapiens, UniProt Q9UKI8)", "sequence (Q9UKI8 whole entry)": "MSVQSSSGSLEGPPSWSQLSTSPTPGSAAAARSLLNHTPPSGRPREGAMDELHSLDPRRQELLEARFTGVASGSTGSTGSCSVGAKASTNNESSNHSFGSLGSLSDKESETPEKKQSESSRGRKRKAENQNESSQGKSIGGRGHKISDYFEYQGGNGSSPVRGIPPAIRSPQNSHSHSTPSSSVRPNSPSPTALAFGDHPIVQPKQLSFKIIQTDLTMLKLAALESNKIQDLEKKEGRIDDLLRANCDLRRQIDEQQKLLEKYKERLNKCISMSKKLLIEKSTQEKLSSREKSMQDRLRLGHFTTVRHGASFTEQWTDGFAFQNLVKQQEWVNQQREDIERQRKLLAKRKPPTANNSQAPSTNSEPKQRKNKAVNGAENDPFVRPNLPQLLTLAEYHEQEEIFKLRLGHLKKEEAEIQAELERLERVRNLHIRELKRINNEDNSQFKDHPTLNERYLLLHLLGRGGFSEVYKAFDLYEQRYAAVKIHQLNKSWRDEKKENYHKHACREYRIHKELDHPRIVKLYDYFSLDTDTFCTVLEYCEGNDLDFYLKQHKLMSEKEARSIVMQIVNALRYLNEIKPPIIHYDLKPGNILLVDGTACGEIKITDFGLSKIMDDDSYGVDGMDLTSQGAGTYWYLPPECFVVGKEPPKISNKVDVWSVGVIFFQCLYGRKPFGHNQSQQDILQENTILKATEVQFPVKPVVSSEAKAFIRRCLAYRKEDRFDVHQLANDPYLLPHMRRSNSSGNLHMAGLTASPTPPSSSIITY", "assay": "KINOMEscan: TLK1", "type": "binding", "conditions": "100 nM, read-out: Percent Control"}, "[11]": {"target": "TSSK1B (Homo sapiens, UniProt Q9BXA7)", "assay": "KINOMEscan: TSSK1B", "type": "binding", "conditions": "100 nM, read-out: Percent Control"}, "[12]": {"target": "TSSK3 (Homo sapiens, UniProt Q96PN8)", "sequence (Q96PN8 whole entry)": "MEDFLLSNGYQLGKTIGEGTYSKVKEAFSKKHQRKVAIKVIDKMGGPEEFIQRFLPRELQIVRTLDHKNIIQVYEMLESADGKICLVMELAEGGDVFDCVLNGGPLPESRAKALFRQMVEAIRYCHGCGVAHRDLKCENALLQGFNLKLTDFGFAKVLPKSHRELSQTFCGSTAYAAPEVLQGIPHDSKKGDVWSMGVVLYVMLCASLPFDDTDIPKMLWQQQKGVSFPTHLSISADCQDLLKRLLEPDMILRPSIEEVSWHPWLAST", "assay": "KINOMEscan: TSSK3", "type": "binding", "conditions": "100 nM, read-out: Percent Control"}, "[13]": {"target": "ZAK (Homo sapiens, UniProt Q9NYL2)", "assay": "KINOMEscan: ZAK", "type": "binding", "conditions": "100 nM, read-out: Percent Control"}, "[14]": {"target": "BRAF(V600E) (Homo sapiens, UniProt P15056, V600E)", "assay": "KINOMEscan: BRAF(V600E)", "type": "binding", "conditions": "1000 nM, read-out: Percent Control"}, "[15]": {"target": "BUB1 (Homo sapiens, UniProt O43683)", "assay": "KINOMEscan: BUB1", "type": "binding", "conditions": "1000 nM, read-out: Percent Control"}, "[16]": {"target": "CLK4 (Homo sapiens, UniProt Q9HAZ1)", "sequence (Q9HAZ1 whole entry)": "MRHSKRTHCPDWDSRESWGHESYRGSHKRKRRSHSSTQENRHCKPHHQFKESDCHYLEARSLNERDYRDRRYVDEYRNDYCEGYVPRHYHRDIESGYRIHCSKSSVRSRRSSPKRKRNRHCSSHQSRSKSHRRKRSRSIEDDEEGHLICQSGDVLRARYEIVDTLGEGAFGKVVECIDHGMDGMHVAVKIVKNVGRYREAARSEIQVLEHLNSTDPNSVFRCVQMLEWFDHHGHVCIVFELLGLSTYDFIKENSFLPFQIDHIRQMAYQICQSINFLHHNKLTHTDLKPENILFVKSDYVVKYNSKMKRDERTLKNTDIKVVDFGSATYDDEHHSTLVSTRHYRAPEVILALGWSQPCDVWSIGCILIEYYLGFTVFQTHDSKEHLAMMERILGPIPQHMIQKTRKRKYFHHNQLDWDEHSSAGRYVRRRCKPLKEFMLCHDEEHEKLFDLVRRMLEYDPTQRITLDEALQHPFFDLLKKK", "assay": "KINOMEscan: CLK4", "type": "binding", "conditions": "1000 nM, read-out: Percent Control"}, "[17]": {"target": "CSF1R (Homo sapiens, UniProt P07333)", "sequence (P07333 20-972)": "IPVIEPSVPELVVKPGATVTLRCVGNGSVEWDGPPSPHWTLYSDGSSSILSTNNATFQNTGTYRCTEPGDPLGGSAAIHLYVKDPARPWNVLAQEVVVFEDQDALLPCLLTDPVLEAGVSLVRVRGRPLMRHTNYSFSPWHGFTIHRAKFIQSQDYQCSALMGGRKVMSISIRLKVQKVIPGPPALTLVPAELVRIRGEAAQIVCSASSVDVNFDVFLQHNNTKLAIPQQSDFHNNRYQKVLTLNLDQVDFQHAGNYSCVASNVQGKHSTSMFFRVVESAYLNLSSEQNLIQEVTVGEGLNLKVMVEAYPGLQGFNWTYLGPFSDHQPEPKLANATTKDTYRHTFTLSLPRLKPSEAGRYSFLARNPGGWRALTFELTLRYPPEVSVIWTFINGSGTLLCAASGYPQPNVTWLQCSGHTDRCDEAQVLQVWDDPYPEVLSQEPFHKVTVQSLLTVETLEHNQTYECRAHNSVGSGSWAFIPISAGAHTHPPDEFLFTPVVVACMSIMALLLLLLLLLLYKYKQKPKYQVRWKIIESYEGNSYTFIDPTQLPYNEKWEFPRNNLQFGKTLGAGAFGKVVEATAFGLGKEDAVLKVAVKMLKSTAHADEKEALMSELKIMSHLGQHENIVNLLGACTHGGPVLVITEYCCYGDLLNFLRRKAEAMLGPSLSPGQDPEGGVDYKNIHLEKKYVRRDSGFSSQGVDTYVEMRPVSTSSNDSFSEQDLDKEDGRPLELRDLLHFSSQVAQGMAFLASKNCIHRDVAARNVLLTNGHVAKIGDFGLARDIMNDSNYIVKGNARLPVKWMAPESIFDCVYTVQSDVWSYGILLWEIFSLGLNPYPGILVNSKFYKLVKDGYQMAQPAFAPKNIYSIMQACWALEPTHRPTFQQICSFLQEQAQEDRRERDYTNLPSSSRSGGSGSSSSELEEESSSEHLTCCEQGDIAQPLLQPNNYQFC", "assay": "KINOMEscan: CSF1R", "type": "binding", "conditions": "1000 nM, read-out: Percent Control"}, "[18]": {"target": "DDR1 (Homo sapiens, UniProt Q08345)", "assay": "KINOMEscan: DDR1", "type": "binding", "conditions": "1000 nM, read-out: Percent Control"}, "[19]": {"target": "EPHB1 (Homo sapiens, UniProt P54762)", "assay": "KINOMEscan: EPHB1", "type": "binding", "conditions": "1000 nM, read-out: Percent Control"}, "[20]": {"target": "ERK1 (Homo sapiens, UniProt P27361)", "assay": "KINOMEscan: ERK1", "type": "binding", "conditions": "1000 nM, read-out: Percent Control"}, "[21]": {"target": "FLT1 (Homo sapiens, UniProt P17948)", "assay": "KINOMEscan: FLT1", "type": "binding", "conditions": "1000 nM, read-out: Percent Control"}, "[22]": {"target": "FLT3(D835H) (Homo sapiens, UniProt P36888, D835H)", "assay": "KINOMEscan: FLT3(D835H)", "type": "binding", "conditions": "1000 nM, read-out: Percent Control"}, "[23]": {"target": "FLT3(D835Y) (Homo sapiens, UniProt P36888, D835Y)", "assay": "KINOMEscan: FLT3(D835Y)", "type": "binding", "conditions": "1000 nM, read-out: Percent Control"}, "[24]": {"target": "FLT4 (Homo sapiens, UniProt P35916)", "assay": "KINOMEscan: FLT4", "type": "binding", "conditions": "1000 nM, read-out: Percent Control"}, "[25]": {"target": "GSK3B (Homo sapiens, UniProt P49841)", "assay": "KINOMEscan: GSK3B", "type": "binding", "conditions": "1000 nM, read-out: Percent Control"}, "[26]": {"target": "HIPK2 (Homo sapiens, UniProt Q9H2X6)", "assay": "KINOMEscan: HIPK2", "type": "binding", "conditions": "1000 nM, read-out: Percent Control"}, "[27]": {"target": "JNK2 (Homo sapiens, UniProt P45984)", "sequence (P45984 whole entry)": "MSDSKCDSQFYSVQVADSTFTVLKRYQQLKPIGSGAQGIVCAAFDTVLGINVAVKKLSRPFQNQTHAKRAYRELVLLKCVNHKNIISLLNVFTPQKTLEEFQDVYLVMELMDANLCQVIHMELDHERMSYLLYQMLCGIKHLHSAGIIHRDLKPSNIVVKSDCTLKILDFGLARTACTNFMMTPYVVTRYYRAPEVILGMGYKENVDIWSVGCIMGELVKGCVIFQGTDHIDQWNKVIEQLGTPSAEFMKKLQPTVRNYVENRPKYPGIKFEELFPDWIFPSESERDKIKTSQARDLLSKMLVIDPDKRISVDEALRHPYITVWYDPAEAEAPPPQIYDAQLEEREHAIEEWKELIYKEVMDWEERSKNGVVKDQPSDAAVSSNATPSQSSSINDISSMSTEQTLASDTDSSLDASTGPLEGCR", "assay": "KINOMEscan: JNK2", "type": "binding", "conditions": "1000 nM, read-out: Percent Control"}, "[28]": {"target": "MAPKAPK5 (Homo sapiens, UniProt Q8IW41)", "assay": "KINOMEscan: MAPKAPK5", "type": "binding", "conditions": "1000 nM, read-out: Percent Control"}, "[29]": {"target": "MKK7 (Homo sapiens, UniProt O14733)", "sequence (O14733 whole entry)": "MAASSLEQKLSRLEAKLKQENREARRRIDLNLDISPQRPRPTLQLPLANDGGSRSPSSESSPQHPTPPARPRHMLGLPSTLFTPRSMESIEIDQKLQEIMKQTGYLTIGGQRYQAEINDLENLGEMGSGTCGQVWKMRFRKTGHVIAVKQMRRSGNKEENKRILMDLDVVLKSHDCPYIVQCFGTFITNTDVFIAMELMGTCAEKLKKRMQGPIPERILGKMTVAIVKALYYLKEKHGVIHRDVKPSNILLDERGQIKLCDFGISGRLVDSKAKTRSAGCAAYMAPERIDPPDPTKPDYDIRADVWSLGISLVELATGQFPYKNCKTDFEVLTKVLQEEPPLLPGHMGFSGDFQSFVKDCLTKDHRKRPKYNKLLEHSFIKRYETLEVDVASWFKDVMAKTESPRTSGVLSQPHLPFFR", "assay": "KINOMEscan: MKK7", "type": "binding", "conditions": "1000 nM, read-out: Percent Control"}, "[30]": {"target": "CDK7/Cyclin H (Homo sapiens, UniProt P50613)", "sequence (P50613 whole entry)": "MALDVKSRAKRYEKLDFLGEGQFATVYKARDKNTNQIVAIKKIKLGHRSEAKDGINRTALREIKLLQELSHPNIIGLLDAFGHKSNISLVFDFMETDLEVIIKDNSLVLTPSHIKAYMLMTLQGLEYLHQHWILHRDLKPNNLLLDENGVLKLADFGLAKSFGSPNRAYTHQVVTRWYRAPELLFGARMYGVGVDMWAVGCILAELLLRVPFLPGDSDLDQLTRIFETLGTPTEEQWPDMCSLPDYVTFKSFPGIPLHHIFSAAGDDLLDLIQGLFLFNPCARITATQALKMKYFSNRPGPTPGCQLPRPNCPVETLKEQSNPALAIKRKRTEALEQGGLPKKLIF", "sequence (P51946 whole entry partner)": "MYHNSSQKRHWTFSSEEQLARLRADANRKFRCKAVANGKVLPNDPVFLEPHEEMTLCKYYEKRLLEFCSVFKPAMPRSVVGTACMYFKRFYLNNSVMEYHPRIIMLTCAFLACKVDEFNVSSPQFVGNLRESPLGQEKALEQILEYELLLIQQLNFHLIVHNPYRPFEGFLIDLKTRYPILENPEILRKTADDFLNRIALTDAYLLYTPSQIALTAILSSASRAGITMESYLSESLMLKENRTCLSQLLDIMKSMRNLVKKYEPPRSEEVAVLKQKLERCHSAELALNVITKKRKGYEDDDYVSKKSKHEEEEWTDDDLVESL", "assay": "NanoBRET target engagement assay (HEK293)", "type": "cell-based", "set-up": "host or cells: HEK293"}}, "data": [{"smiles": "COc1cc(F)ccc1-c1cc(Nc2cc(CS(C)(=N)=O)ccn2)ncc1F", "note": "(centres unmarked) [VIP152]", "values": [{"measurement": "inhibition at 1 µM", "setting": "[1]; 1000 nM", "value": 98.4, "unit": "%"}, {"measurement": "remaining binding at 0.1 µM", "setting": "[1]; IRAK1, 100 nM, read-out: Percent Control", "value": 59, "unit": "%"}, {"measurement": "remaining binding at 1 µM", "setting": "[1]; IRAK1, 1000 nM, read-out: Percent Control", "value": 1.6, "unit": "%"}, {"measurement": "potency versus the other inhibitors", "setting": "[2]", "value": "higher potency"}, {"measurement": "inhibition at 10 µM", "setting": "[3]", "value": -7, "unit": "%"}, {"measurement": "% Inh.", "setting": "[4]", "value": 6, "unit": "%"}, {"measurement": "% Inh.", "setting": "[5]", "value": -3, "unit": "%"}, {"measurement": "% Inh.", "setting": "[6]", "value": 20, "unit": "%"}, {"measurement": "remaining binding at 1 µM", "setting": "[7]", "value": 99, "unit": "%"}, {"measurement": "remaining binding at 0.1 µM", "setting": "[8]", "value": 100, "unit": "%"}, {"measurement": "remaining binding at 0.1 µM", "setting": "[9]", "value": 100, "unit": "%"}, {"measurement": "remaining binding at 0.1 µM", "setting": "[10]", "value": 98, "unit": "%"}, {"measurement": "remaining binding at 0.1 µM", "setting": "[11]", "value": 78, "unit": "%"}, {"measurement": "remaining binding at 0.1 µM", "setting": "[12]", "value": 96, "unit": "%"}, {"measurement": "remaining binding at 0.1 µM", "setting": "[13]", "value": 100, "unit": "%"}, {"measurement": "remaining binding at 1 µM", "setting": "[14]", "value": 92, "unit": "%"}, {"measurement": "remaining binding at 1 µM", "setting": "[15]", "value": 7.1, "unit": "%"}, {"measurement": "remaining binding at 1 µM", "setting": "[16]", "value": 88, "unit": "%"}, {"measurement": "remaining binding at 1 µM", "setting": "[17]", "value": 70, "unit": "%"}, {"measurement": "remaining binding at 1 µM", "setting": "[18]", "value": 29, "unit": "%"}, {"measurement": "remaining binding at 1 µM", "setting": "[19]", "value": 99, "unit": "%"}, {"measurement": "remaining binding at 1 µM", "setting": "[20]", "value": 82, "unit": "%"}, {"measurement": "remaining binding at 1 µM", "setting": "[21]", "value": 86, "unit": "%"}, {"measurement": "remaining binding at 1 µM", "setting": "[22]", "value": 57, "unit": "%"}, {"measurement": "remaining binding at 1 µM", "setting": "[23]", "value": 67, "unit": "%"}, {"measurement": "remaining binding at 1 µM", "setting": "[24]", "value": 74, "unit": "%"}, {"measurement": "remaining binding at 1 µM", "setting": "[25]", "value": 11, "unit": "%"}, {"measurement": "remaining binding at 1 µM", "setting": "[26]", "value": 71, "unit": "%"}, {"measurement": "remaining binding at 1 µM", "setting": "[27]", "value": 83, "unit": "%"}, {"measurement": "remaining binding at 1 µM", "setting": "[28]", "value": 89, "unit": "%"}, {"measurement": "remaining binding at 1 µM", "setting": "[29]", "value": 100, "unit": "%"}, {"measurement": "IC50 compared with other inhibitors", "setting": "[30]", "value": "IC50 was higher than dinaciclib and KB-0742"}]}]}
